Experimental data published in patent publication US7067520B2, “Preventive or therapeutic medicines for diabetes containing fused-heterocyclic compounds or their salts” (Ishihara Sangyo Kaisha, Ltd., priority 2000, dated 2006).

Legend:
KK-Ay/Ta mice = test: Test for hypoglycemic effect in KK-Ay/Ta mice; assay type: in vivo; settings: 50 mg/kg single oral dose, percentage to level before administration, significant vs vehicle control (P≦0.05)
Description: Using KK-Ay/Ta mice (purchased from CLEA Japan, Inc.) as spontaneous diabetic type II, the hypoglycemic effect of each of compounds under test was confirmed by the following method.
Male KK-Ay/Ta mice sufficiently preliminarily bred and acclimatized were classified into groups, each consisting of six mice, and each of the compounds under test was administered. Each of the compounds under test as suspended in 0.5% carboxymethyl cellulose (manufactured by Nacalai Tesque), and each compound was orally administered singly in a dose of 50 mg/kg (10 ml/kg) by means of an oral conductor. At the same time, as a group of vehicle control, 0.5% carboxymethyl cellulose was administered in the same volume (10 ml/kg) as for the group of administration of compound under test.
Collection of blood was carried out by the following method before the administration of each of the compounds under test or the vehicle, and at the time as identified in Table 28 after the administration. The tail vein of each mouse was shallowly cut by the edge of a razor to cause bleeding in an amount of blood of from 10 to 20 μL, and the blood was collected by a micropipet. The collected blood samples were immediately mixed with a heparin solution (20 U/ml) (manufactured by Mochida Yakuhin) in the same amount as the respective collected blood samples, and subjected to centrifugation at 4° C. for 5 minutes (10,000 rpm) by means of a cooling centrifugal machine. The plasma after the centrifugation was obtained as a sample for blood glucose level measurement.
The blood glucose level was measured by means of glucose oxidase method, and measured by using a commercially available assay kit (Glucose CII TEST WAKO, manufactured by Wako Pure Chemical Industries, Ltd.). Measurement was carried out on the day after the collection of blood, and the obtained plasma was stored at −20° C. before the measurement.
The blood glucose level at the time of collection of blood was calculated as the percentage to the blood glucose level before administration of the compound under test, and the hypoglycemic effect of the compound under test was evaluated by comparison with the change of the blood glucose level (percentage) of the group of vehicle control at the time of collection of blood. The evaluation results of the hypoglycemic effect are considered to have a significant difference compared with the vehicle control by means of Wilcoxon's rank sum test (P≦0.05)

L6 cells = test: Glucose uptake test by L6 cells; assay type: cell-based; settings: Rattus norvegicus, 1 hour, 2-deoxy-[3H]-glucose uptake, control (MEM solvent alone) = 100%, read-out: Ratio activity (%); for activity at 10 µg/mL: treatment concentration 10 μg/ml; for activity at 100 µg/mL: treatment concentration 100 μg/ml
Description: Glucose Uptake Test by L6 Cells
Each of compounds under test was applied to L6 cells (rat cells originally derived from skeletal muscles) by the following method to measure the stimulating effect on glucose uptake. Namely, L6 cells were suspended in α-minimum essential medium (hereinafter referred to simply as MEM) containing 10% fetal bovine serum (hereinafter referred to simply as FBS), and inoculated into a 96-well plastic plate in an amount of 5×10^4 cells/well and cultivated in an incubator (5% carbon dioxide gas, 37° C.) until the cells grew all over the well. Then, the culture medium was switched to MEM solution containing 2% BS, followed by cultivation further for from 7 to 10 ays (the culture medium was exchanged every three days) to differentiate the cells into skeletal muscle cells. Then, the culture medium was replaced with MEM solution without FBS, followed by cultivation for three hours, and then the compound under test prepared to a treatment concentration (diluted with MEM solution without FBS) was reacted with the skeletal muscle cells at 37° C. for 1 hour. The cells were washed with Krebs-Henseleit-Ringer buffer solution (hereinafter referred to simply as KHR buffer solution), and 2-deoxy-[^3H]-glucose was added to the cells in the KHR buffer solution, followed by treatment at 37° C. for 10 minutes. The treatment solution was removed, the cells were washed with the KHR buffer solution, then the cells were dissolved in a 1N sodium hydroxide solution in an appropriate amount, and the [^3H] radio activity was measured by means of a liquid scintillation counter (cpm) The percentage of the glucose uptake was represented by the percentage of radio activity when the compound under test was applied, taking the radio activity of the control (the MEM solvent alone was applied) as 100%. Each of the compounds as identified in Table 27 was used for treatment at a concentration of each of 10 μg/ml and 100 μg/ml to examine the stimulating effect on glucose uptake.

Row | Compound | Rate of change of blood glucose level (KK-Ay/Ta mice; after 3 hours) | melting point | activity at 10 µg/mL (L6 cells) | activity at 100 µg/mL (L6 cells) | Rate of change of blood glucose level (KK-Ay/Ta mice; after 6 hours)
1 | CSc1nc2ccnn2c(Nc2ccc([N+](=O)[O-])cc2)c1C#N [compound 200] | 79% | > 270 °C | > 115% | > 115% | –
2 | CSc1nc2ccnn2c(NCc2ccc(C)cc2)c1C#N [compound 50] | 74% | 159 °C | > 115% | > 115% | –
3 | CSc1nc2ccnn2c(NCc2ccncc2)c1C#N [Compound No. 3, 7-(4-pyridylmethyl)amino-5-methylthiopyrazolo[1,5-a]pyrimidine-6-carbonitrile] | 78% | 153 to 154 °C | > 115% | > 115% | –
4 | CSc1nc2ccnn2c(NCC2OCCO2)c1C#N [compound 8] | – | 157 to 158 °C | – | > 115% | 68%
5 | CSc1nc2cc(C)nn2c(Nc2cccc(C#N)c2)c1C#N [compound 186] | 80% | 235 to 238 °C | > 115% | > 115% | –
6 | CCOC(=O)c1c(SC)nc2ccnn2c1NCc1ccncc1 [compound 221] | – | 123 °C | > 115% | > 115% | –
7 | CSc1nc2ccnn2c(Nc2ccccc2Cl)c1C#N [compound 163] | – | 201 to 202 °C | > 115% | – | –
